Results on five compounds are retold here after US20250099557A1, “ANTIBIOTIC PHARMACEUTICAL COMPOSITION CAPABLE OF SUBCUTANEOUS ADMINISTRATION” (SHANGHAI BAO PHARMACEUTICALS CO., LTD., priority 2021, published 2025).

Usually Tmax stands for the time at which the peak concentration occurs. In general, AUC(0-t) refers to the area under the concentration-time curve up to a stated or last time point. By Cmax is commonly meant the highest concentration seen after dosing.

Like-named read-outs stand apart in the source and are kept apart here.

The nature of data set [1]: Compatibility study of HAase and antibiotic in solution: appearance of the solution. The format is physicochemical. The following applies: 8 solutions of antibiotic (two concentrations) with HAase 150-6000 units/ml in physiological saline. As for the experimental part:
The compatibility of HAase and an antibiotic was studied by preparing a solution comprising the two substances. A dry Meropenem power for injection was dissolved in physiological saline to give a concentration of 5 mg/ml and 50 mg/ml, and then HAase was added to give a final concentration of 150, 500, 2000, and 6000 units/ml respectively. After preparation, the solution was left to stand at room temperature for 15 min. The appearance of the solution was observed, and the concentration of HAase was determined.
The compatibility of HAase and an antibiotic was studied by preparing a solution comprising the two substances. A dry Ceftriaxone sodium power for injection was dissolved in physiological saline to give a concentration of 50 mg/ml and 250 mg/ml, and then HAase was added to give a final concentration of 150, 500, 2000, and 6000 units/ml respectively. After preparation, the solution was left to stand at room temperature for 15 min. The appearance of the solution was observed, and the concentration of HAase was determined.
The compatibility of HAase and an antibiotic was studied by preparing a solution comprising the two substances. A dry Azithromycin power for injection was dissolved in physiological saline to give a concentration of 10 mg/ml and 100 mg/ml, and then HAase was added to give a final concentration of 150, 500, 2000, and 6000 units/ml respectively. After preparation, the solution was left to stand at room temperature for 15 min. The appearance of the solution was observed, and the concentration of HAase was determined.
The compatibility of HAase and an antibiotic was studied by preparing a solution comprising the two substances. A dry Cefradine powder for injection was dissolved in physiological saline to give a concentration of 50 mg/ml and 250 mg/ml, and then HAase was added to give a final concentration of 150, 500, 2000, and 6000 units/ml respectively. After preparation, the solution was left to stand at room temperature for 15 min. The appearance of the solution was observed, and the concentration of HAase was determined.
The compatibility of HAase and an antibiotic was studied by preparing a solution comprising the two substances. A dry Teicoplanin powder for injection was dissolved in physiological saline to give a concentration of 10 mg/ml and 70 mg/ml, and then HAase was added to give a final concentration of 150, 500, 2000, and 6000 units/ml respectively. After preparation, the solution was left to stand at room temperature for 15 min. The appearance of the solution was observed, and the concentration of HAase was determined.
The compatibility of HAase and an antibiotic was studied by preparing a solution comprising the two substances. A dry Ceftazidime powder for injection was dissolved in physiological saline to give a concentration of 20 mg/ml and 200 mg/ml, and then HAase was added to give a final concentration of 150, 500, 2000, and 6000 units/ml respectively. After preparation, the solution was left to stand at room temperature for 15 min. The appearance of the solution was observed, and the concentration of HAase was determined.
The compatibility of HAase and an antibiotic was studied by preparing a solution comprising the two substances. A dry Ertapenem power for injection was dissolved in physiological saline to give a concentration of 30 mg/ml and 300 mg/ml, and then HAase was added to give a final concentration of 150, 500, 2000, and 6000 units/ml respectively. After preparation, the solution was left to stand at room temperature for 15 min. The appearance of the solution was observed, and the concentration of HAase was determined.
The compatibility of HAase and an antibiotic was studied by preparing a solution comprising the two substances. A dry Polymyxin B powder for injection was dissolved in physiological saline to give a concentration of 50,000 units/ml and 250,000 units/ml, and then HAase was added to give a final concentration of 150, 500, 2000, and 6000 units/ml respectively.

The nature of the next data set: in vivo. The conditions noted are these: male, ICR, mouse.
For data set [2] the following is noted: male, ICR, mouse, in vivo, sc.
From the text: (§1) The difference in pharmacokinetics between subcutaneous administration of antibiotics combined with recombinant human HAase and traditional intravenous administration of antibiotics in mice was studied. Ceftriaxone, Ceftazidime, Ertapenem, and Teicoplanin were used as model antibiotics. A total of 48 ICR male mice were used in each antibiotic model, and divided into two groups, each having 24 mice. The two groups include a tail vein injection group, and a subcutaneous administration group of antibiotics combined with recombinant human HAase. The single dose was 100-200 mg/kg, and the drugs was respectively formulated and administered according to the scheme for each group. Blood samples were taken 5 min, 15 min, 30 min, 45 min, 1 hr, 2 hrs, 4 hrs and 8 hrs after administration. The concentration of each model antibiotic in the sample was detected by LC-MS and the pharmacokinetic parameters were calculated.
Data set [3] is described as follows: Pharmacokinetics of model antibiotics in mice: tail vein injection vs subcutaneous administration combined with recombinant human HAase. The conditions noted are these: for AUC(0-t): AUClast.
From the text: as §1
The next data set concerns the target T1, HAase (Homo sapiens, UniProt P38567).
T1 construct: made in house
T1 sequence (P38567 36-482): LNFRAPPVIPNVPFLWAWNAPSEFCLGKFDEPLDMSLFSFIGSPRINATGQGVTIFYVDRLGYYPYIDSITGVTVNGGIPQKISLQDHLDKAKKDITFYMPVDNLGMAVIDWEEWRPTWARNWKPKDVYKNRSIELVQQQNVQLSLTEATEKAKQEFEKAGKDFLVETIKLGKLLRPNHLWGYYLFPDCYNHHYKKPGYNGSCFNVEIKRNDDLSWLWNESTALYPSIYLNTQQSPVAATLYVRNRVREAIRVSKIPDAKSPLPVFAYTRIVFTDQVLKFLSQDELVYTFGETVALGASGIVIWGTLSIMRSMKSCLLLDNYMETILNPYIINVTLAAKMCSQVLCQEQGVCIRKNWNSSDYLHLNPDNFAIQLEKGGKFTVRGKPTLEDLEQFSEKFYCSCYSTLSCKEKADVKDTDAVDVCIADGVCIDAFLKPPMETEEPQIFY
The data set can be described thus: Compatibility study of HAase and antibiotic in solution: HAase activity. The format is biochemical. The following applies: 15 min room temperature.

[4] abbreviates: ICR male mice, in combination with recombinant human HAase for subcutaneous administration, single dose 100-200 mg/kg.
Where [5] appears, read: ICR male mice, administration by injection via tail vein, single dose 100-200 mg/kg.
Where [6] appears, read: ICR male mice, conventional subcutaneous administration, single dose 100-200 mg/kg.

From the text for in vivo: as §1

Consider `CC1=C(C(=O)O)N2C(=O)[C@@H](NC(=O)[C@H](N)C3=CCC=CC3)[C@H]2SC1` [Cefradine], for which the “appearance of the solution” value in data set [1] was “clear and transparent”.
Take `CC(C)(O/N=C(\C(=O)N[C@@H]1C(=O)N2C(C(=O)[O-])=C(C[n+]3ccccc3)CS[C@H]12)c1csc(N)n1)C(=O)O` [Ceftazidime]: in data set [1], the “appearance of the solution” value was “clear and transparent”. Moreover, the Tmax was 5 min in “in vivo” (iv) and 15 min in the data set “in vivo” (sc).
As for `CO/N=C(\C(=O)N[C@@H]1C(=O)N2C(C(=O)O)=C(CSc3nc(=O)c(=O)[nH]n3C)CS[C@H]12)c1csc(N)n1` [Ceftriaxone], the “appearance of the solution” value in data set [1] is “clear and transparent”. In addition, the figures for the Tmax (in “in vivo” (iv); in data set [2]) were 5 min and 15 min, respectively.
As to `C[C@@H](O)[C@H]1C(=O)N2C(C(=O)O)=C(S[C@@H]3CN[C@H](C(=O)Nc4cccc(C(=O)O)c4)C3)[C@H](C)[C@H]12` [Ertapenem], in data set [1], the “appearance of the solution” value is “clear and transparent”. Further, the Tmax in data set [3] (setting [4]) is 15 min; in data set [3] (male, ICR, mouse, blood, iv) it was 5 min; in data set [3] (male, ICR, mouse, blood, sc), 15 min. Also, the AUC(0-t) stood at 450 µg·h/mL in data set [3] (male, ICR, mouse, blood, iv, ICR male mice, administration by injection via tail vein, single dose 100-200 mg/kg); 442 µg·h/mL in data set [3] (male, ICR, mouse, blood, sc, ICR male mice, conventional subcutaneous administration, single dose 100-200 mg/kg); 459 µg·h/mL in data set [3] (male, ICR, mouse, blood, sc, ICR male mice, in combination with recombinant human HAase for subcutaneous administration, single dose 100-200 mg/kg). The Cmax in data set [3] (male, ICR, mouse, blood, iv, Cmax, ICR male mice, administration by injection via tail vein, single dose 100-200 mg/kg) turned out to be 368 µg/mL; in data set [3] (male, ICR, mouse, blood, sc, Cmax, ICR male mice, conventional subcutaneous administration, single dose 100-200 mg/kg) it was 318 µg/mL; in data set [3] (male, ICR, mouse, blood, sc, Cmax, ICR male mice, in combination with recombinant human HAase for subcutaneous administration, single dose 100-200 mg/kg) it was 333 µg/mL. The “Final concentration of HAase (units/ml) 2000” value at HAase (antibiotic 30 mg/ml in physiological saline, HAase added to 2000 units/ml) came to 2016 units/ml. For the same compound, on HAase (antibiotic 300 mg/ml in physiological saline, HAase added to 150 units/ml), the “Final concentration of HAase (units/ml) 150” value worked out at 156 units/ml.
Teicoplanin: the “appearance of the solution” value in data set [1] is “clear and transparent”. Further, in data set [3] (setting [5]), the AUClast turned out to be 195 µg·h/mL, the Cmax stood at 148 µg/mL and the Tmax stood at 5 min. In addition, in data set [3] (setting [6]), the AUClast was 201 µg·h/mL, the Cmax amounted to 121 µg/mL and the Tmax was determined as 15 min. In addition, in data set [3] (setting [4]), the AUClast was 210 µg·h/mL, the Cmax amounted to 133 µg/mL and the Tmax was 15 min.
